{"source": "patent US4486411A", "about": "“Beta-lactamase inhibiting 6-beta-sulfonyloxypenicillanic acid derivatives” (Pfizer Inc., priority 1981, dated 1984)", "key": {"[1]": {"target": "Enterobacter cloacae 67B009 beta-lactamase (Enterobacter cloacae, UniProt P05364)", "sequence (P05364 21-381)": "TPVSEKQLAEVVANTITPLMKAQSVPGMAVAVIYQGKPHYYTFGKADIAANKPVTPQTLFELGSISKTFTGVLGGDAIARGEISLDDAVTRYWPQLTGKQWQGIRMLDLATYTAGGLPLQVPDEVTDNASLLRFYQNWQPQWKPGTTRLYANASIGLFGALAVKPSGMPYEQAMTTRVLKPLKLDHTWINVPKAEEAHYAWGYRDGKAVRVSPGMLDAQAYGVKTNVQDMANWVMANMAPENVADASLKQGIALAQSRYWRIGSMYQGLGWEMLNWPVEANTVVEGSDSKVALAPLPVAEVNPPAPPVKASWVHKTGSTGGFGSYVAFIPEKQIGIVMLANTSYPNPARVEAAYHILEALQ", "assay": "Inhibition of cell free beta-lactamase (beta-lactam hydrolysis)", "assay_type": "biochemical", "conditions": "pH 6.5, 37° C.; for inhibition at 66 µM: inhibitor 66 μM; for inhibition at 16.5 µM: inhibitor 16.5 μM", "protocol": "(§1) The compounds of the present invention are also evaluated in vitro by their ability to inhibit the hydrolysis of certain beta-lactam antibiotics by beta-lactamase enzymes. The hydrolysis of ampicillin and penicillin G was determined by the microiodometric method of Novick [Biochem. J. 83, 236 (1962)].\n(§2) Cephaloridine hydrolysis was measured by following the decrease in ultraviolet absorbance at 255 nm [O'Callaghan et al., Antimicrob. Agents Chemother. 1968, pp. 57-63 (1969)]. Conditions for both assays were idential: 0.5 M potassium phosphate, pH 6.5 and 37° C. Reactions were initiated by the addition of the cell-free beta-lactamase, except in the case of preincubation experiments in which the inhibitor and enzyme were incubated together in the assay mixture for 10 minutes before initiation of the reaction by addition of substrate. With the cell-free extracts of Staphylococcus aureus, Escherichia coli, Klebsiella pneumoniae and Pseudomonas aeruginosa, the substrate was ampicillin at 33 micro M (13 microg./ml.). Typical specific activities of the beta-lactamase preparations were, respectively, 6,019, 88,970, 260 and 76 micromol/hr. per mg. of protein.\n(§3) Cell-free extracts were prepared by sonic treatment (using three 30-s bursts at 4° C. except for S. aureus, which was broken with a French press) of cultures grown in brain heart infusion on a rotary shaker incubator. For the S. aureus, P. aeruginosa, and E. cloacae strains, de novo synthesis of beta-lactamase was induced by growing a log-phase culture in the presence of a sublethal concentration of penicillin G at 100, 1,000, and 300 microg./ml, respectively, for 2.5 hr."}, "[2]": {"target": "T1, Staphylococcus aureus 01A400 beta-lactamase (Staphylococcus aureus, UniProt P00807)", "T1 construct": "Cell-free extracts were prepared by sonic treatment; endogenous in cells; host or cells: Staphylococcus aureus 01A400, penicillin G-induced culture, cell-free extract (French press)", "T1 sequence (P00807 25-281)": "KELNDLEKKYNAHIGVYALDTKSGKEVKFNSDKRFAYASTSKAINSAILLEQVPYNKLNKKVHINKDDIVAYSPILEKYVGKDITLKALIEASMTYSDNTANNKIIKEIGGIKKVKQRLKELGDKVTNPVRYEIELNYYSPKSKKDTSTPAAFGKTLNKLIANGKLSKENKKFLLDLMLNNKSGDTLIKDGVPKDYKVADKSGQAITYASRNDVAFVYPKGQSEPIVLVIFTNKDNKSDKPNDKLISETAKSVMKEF", "assay": "Inhibition of cell free beta-lactamase (beta-lactam hydrolysis)", "assay_type": "biochemical", "conditions": "pH 6.5, 37° C.; for % Inhibition Beta-Lactam Hydrolysis: listed as R = C6 H5, n = 0", "protocol": "as §1, §2, §3"}, "[3]": {"tested_on": "Enterobacter cloacae", "assay": "MIC, brain heart infusion agar dilution", "assay_type": "cell-based", "protocol": "(§4) The procedure which is followed is the one recommended by the International Collaborative Study on Antibiotic Sensitivity Testing [Ericcson and Sherris, Acta. Pathologica et Microbiologia Scandinav, Supp. 217, Sections A and B: 64-68 (1971)], and employs brain heart infusion (BHI) agar and the inocula replicating device. Overnight growth tubes are diluted 100 fold for use as the standard inoculum (20,000-10,000 cells in approximately 0.002 ml. are placed on the agar surface; 20 ml. of BHI agar/dish). Twelve 2 fold dilutions of the test compound are employed, with initial concentration of the test drug being 200 mcg./ml. Single colonies are disregarded when reading plates after 18 hrs. at 37° C. The susceptibility (MIC) of the test organism is accepted as the lowest concentration of compound capable of producing complete inhibition of growth as judged by the naked eye. The manner in which the said compounds of the formula I increase the effectiveness of a beta-lactam antibiotic can be appreciated by reference to experiments in which the MIC of a given antibiotic alone, and a compound of the formula I alone, are measured. These MIC's are then compared with the MIC values obtained with a combination of the given antibiotic and the compound of the formula I wherein R^1 is hydrogen. […] The MIC values of combinations are measured using the method described by Barry and Sabath in \"Manual of Clinical Microbiology\", edited by Lenette, Spaulding and Truant, 2nd Edition, 1974, American Society for Microbiology.\n(§5) Results of experiments illustrating that compounds of the formula II enhance the effectiveness of various beta-lactam antibiotics are reported in Tables I and II. […] It is obvious that the combination of compounds of the formula II with beta-lactam antibiotics will show synergistic activity against other bacterial strains, including some freshly isolated in the clinics. Determination of this activity is a matter of routine application of this type of testing."}, "[4]": {"tested_on": "Escherichia coli 129*", "assay": "MIC, brain heart infusion agar dilution", "assay_type": "cell-based", "protocol": "as §4, §5"}, "[5]": {"tested_on": "Escherichia coli 2*", "assay": "MIC, brain heart infusion agar dilution", "assay_type": "cell-based", "protocol": "as §4, §5"}, "[6]": {"tested_on": "Escherichia coli 266", "assay": "MIC, brain heart infusion agar dilution", "assay_type": "cell-based", "protocol": "as §4, §5"}, "[7]": {"tested_on": "Klebsiella pneumonia", "assay": "MIC, brain heart infusion agar dilution", "assay_type": "cell-based", "protocol": "as §4, §5"}, "[8]": {"tested_on": "Proteus morgani", "assay": "MIC, brain heart infusion agar dilution", "assay_type": "cell-based", "protocol": "as §4, §5"}, "[9]": {"tested_on": "Pseudomonas aeruginosa", "assay": "MIC, brain heart infusion agar dilution", "assay_type": "cell-based", "protocol": "as §4, §5"}, "[10]": {"tested_on": "Serratia marcescens", "assay": "MIC, brain heart infusion agar dilution", "assay_type": "cell-based", "protocol": "as §4, §5"}, "[11]": {"tested_on": "Staphylococcus aureus 400*", "assay": "MIC, brain heart infusion agar dilution", "assay_type": "cell-based", "conditions": "1:1 mixture with ampicillin; resistant variant", "protocol": "as §4, §5"}, "[12]": {"tested_on": "Staphylococcus aureus 5", "assay": "MIC, brain heart infusion agar dilution", "assay_type": "cell-based", "conditions": "for MIC: 18 hrs. at 37° C., Table II gives two separate tests", "protocol": "as §4, §5"}, "[13]": {"tested_on": "Escherichia coli 51A129 beta-lactamase", "assay": "Inhibition of cell free beta-lactamase (beta-lactam hydrolysis)", "assay_type": "biochemical", "conditions": "Ampicillin 33 μM, pH 6.5, 37° C.", "protocol": "as §1, §2, §3"}, "[14]": {"tested_on": "Klebsiella pneumoniae 53A129 beta-lactamase", "assay": "Inhibition of cell free beta-lactamase (beta-lactam hydrolysis)", "assay_type": "biochemical", "conditions": "Ampicillin 33 μM, pH 6.5, 37° C.", "protocol": "as §1, §2, §3"}, "[15]": {"target": "T2, Pseudomonas aeruginosa 52A104 beta-lactamase (Pseudomonas aeruginosa, UniProt P24735)", "T2 construct": "cell-free sonicate of penicillin G-induced culture", "T2 sequence (P24735 27-397)": "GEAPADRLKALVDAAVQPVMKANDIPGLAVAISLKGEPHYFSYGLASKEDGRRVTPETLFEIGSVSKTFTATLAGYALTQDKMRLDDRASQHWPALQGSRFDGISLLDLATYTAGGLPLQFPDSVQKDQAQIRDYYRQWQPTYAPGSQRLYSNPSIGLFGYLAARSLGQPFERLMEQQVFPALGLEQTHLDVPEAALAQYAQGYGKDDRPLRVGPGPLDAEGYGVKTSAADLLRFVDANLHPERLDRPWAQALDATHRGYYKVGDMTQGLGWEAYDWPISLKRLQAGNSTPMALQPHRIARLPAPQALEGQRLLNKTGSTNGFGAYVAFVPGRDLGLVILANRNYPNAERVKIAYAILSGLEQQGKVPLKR", "assay": "Inhibition of cell free beta-lactamase (beta-lactam hydrolysis)", "assay_type": "biochemical", "conditions": "pH 6.5, 37° C.", "protocol": "as §1, §2, §3"}, "[16]": {"conditions": "pH 6.5, Ampicillin 33 μM, inhibitor 66 μM"}, "[17]": {"conditions": "1:1 mixture with ampicillin, resistant variant"}, "[18]": {"conditions": "1:1 mixture with cefazolin, resistant variant"}, "[19]": {"conditions": "Escherichia coli, 18 h, read-out: MIC Alone"}}, "note": "Where “and” joins values, the source holds several entries; their conditions need not be identical. Equal entries are not always repeated. Where two headings read alike, the source gives them in different places.", "data": [{"smiles": "CC1(C)[C@H](C(=O)O)N2C(=O)[C@@H](OS(=O)(=O)Cc3ccccc3)[C@H]2S1(=O)=O", "note": "[R = C6 H5, n = 2, Sodium 6-beta-(alpha-Toluene-sulfonyloxy)penicillanate Sulfone]", "values": [{"measurement": "inhibition at 66 µM", "setting": "[1]; pH 6.5, Penicillin G 33 μM", "value": 0, "unit": "%"}, {"measurement": "inhibition at 66 µM", "setting": "[2]; [16]", "value": 36.2, "unit": "%"}]}, {"smiles": "CC1(C)S[C@@H]2[C@H](OS(=O)(=O)Cc3ccccc3)C(=O)N2[C@H]1C(=O)O", "note": "[Sodium 6-Beta-(Alpha-Toluenesulfonyloxy)penicillanate]", "values": [{"measurement": "MIC with Ampicillin", "setting": "[3]; 1:1 mixture with ampicillin", "value": 100, "unit": "µg/mL"}, {"measurement": "Response with Ampicillin", "setting": "[3]; 1:1 mixture with ampicillin", "value": "Synergy"}, {"measurement": "MIC with Cefazolin", "setting": "[3]; 1:1 mixture with cefazolin", "value": 100, "unit": "µg/mL"}, {"measurement": "Response with Cefazolin", "setting": "[3]; 1:1 mixture with cefazolin", "value": "Synergy"}, {"measurement": "MIC", "setting": "[3]; Enterobacter cloacae, 18 h, alone, Table II gives two separate tests", "value": "> 200", "unit": "µg/mL"}, {"measurement": "MIC with Ampicillin", "setting": "[4]; [17]", "value": "> 100", "unit": "µg/mL"}, {"measurement": "MIC with Cefazolin", "setting": "[4]; [18]", "value": "100 µg/mL and 50 µg/mL"}, {"measurement": "MIC", "setting": "[4]; [19]", "value": "> 200", "unit": "µg/mL"}, {"measurement": "MIC with Ampicillin", "setting": "[5]; [17]", "value": "> 100", "unit": "µg/mL"}, {"measurement": "MIC with Cefazolin", "setting": "[5]; [18]", "value": "12.5 µg/mL and 6.25 µg/mL"}, {"measurement": "MIC", "setting": "[5]; [19]", "value": "> 200", "unit": "µg/mL"}, {"measurement": "MIC with Ampicillin", "setting": "[6]; 1:1 mixture with ampicillin", "value": "3.12 µg/mL and 1.56 µg/mL"}, {"measurement": "MIC", "setting": "[6]; Escherichia coli, 266, 18 h, alone, Table II gives two separate tests", "value": "> 200", "unit": "µg/mL"}, {"measurement": "MIC with Ampicillin", "setting": "[7]; 1:1 mixture with ampicillin", "value": "> 100", "unit": "µg/mL"}, {"measurement": "Response with Ampicillin", "setting": "[7]; 1:1 mixture with ampicillin", "value": "Antagonism"}, {"measurement": "MIC with Cefazolin", "setting": "[7]; 1:1 mixture with cefazolin", "value": 0.78, "unit": "µg/mL"}, {"measurement": "Response with Cefazolin", "setting": "[7]; 1:1 mixture with cefazolin", "value": "Additive"}, {"measurement": "MIC", "setting": "[7]; Klebsiella pneumoniae, 18 h, alone, Table II gives two separate tests", "value": "> 200", "unit": "µg/mL"}, {"measurement": "MIC with Ampicillin", "setting": "[8]; 1:1 mixture with ampicillin", "value": 3.12, "unit": "µg/mL"}, {"measurement": "MIC with Cefazolin", "setting": "[8]; 1:1 mixture with cefazolin", "value": 50, "unit": "µg/mL"}, {"measurement": "Response with Cefazolin", "setting": "[8]; 1:1 mixture with cefazolin", "value": "Synergy"}, {"measurement": "MIC", "setting": "[8]; 18 h, alone, Table II gives two separate tests", "value": "> 200", "unit": "µg/mL"}, {"measurement": "MIC with Ampicillin", "setting": "[9]; 1:1 mixture with ampicillin", "value": "> 100", "unit": "µg/mL"}, {"measurement": "MIC with Cefazolin", "setting": "[9]; 1:1 mixture with cefazolin", "value": "> 100", "unit": "µg/mL"}, {"measurement": "MIC", "setting": "[9]; Pseudomonas aeruginosa, 18 h, alone, Table II gives two separate tests", "value": "> 200", "unit": "µg/mL"}, {"measurement": "MIC with Cefazolin", "setting": "[10]; 1:1 mixture with cefazolin", "value": "> 100", "unit": "µg/mL"}, {"measurement": "MIC", "setting": "[10]; Serratia marcescens, 18 h, alone, Table II gives two separate tests", "value": "> 200", "unit": "µg/mL"}, {"measurement": "Response with Ampicillin", "setting": "[11]", "value": "Additive"}, {"measurement": "MIC with Ampicillin", "setting": "[12]; 1:1 mixture with ampicillin", "value": "≤ 0.2", "unit": "µg/mL"}, {"measurement": "MIC", "setting": "[12]; Staphylococcus aureus, 5, 18 h, read-out: MIC Alone, alone", "value": 6.25, "unit": "µg/mL"}, {"measurement": "MIC", "setting": "[12]; Staphylococcus aureus, 5, alone, read-out: MIC Alone", "value": 100, "unit": "µg/mL"}, {"measurement": "inhibition at 16.5 µM", "setting": "[1]; pH 6.5, Cephalexin 33 μM", "value": 100, "unit": "%"}, {"measurement": "inhibition at 16.5 µM", "setting": "[1]; pH 6.5, Cephaloridine 4 μM", "value": 100, "unit": "%"}, {"measurement": "inhibition at 4 µM", "setting": "[1]; pH 6.5, Cephaloridine 33 μM, inhibitor 4 μM", "value": 93.7, "unit": "%"}, {"measurement": "inhibition at 16.5 µM", "setting": "[1]; pH 6.5, Cephaloridine 33 μM", "value": 98.3, "unit": "%"}, {"measurement": "inhibition at 16.5 µM", "setting": "[1]; pH 6.5, Penicillin G 33 μM", "value": 96, "unit": "%"}, {"measurement": "inhibition at 66 µM", "setting": "[1]; pH 6.5, Penicillin G 33 μM", "value": 96, "unit": "%"}, {"measurement": "% Inhibition Beta-Lactam Hydrolysis", "setting": "[13]; inhibitor 16.5 μM", "value": 14.0, "unit": "%"}, {"measurement": "% Inhibition Beta-Lactam Hydrolysis", "setting": "[13]; inhibitor 66 μM", "value": 15.8, "unit": "%"}, {"measurement": "% Inhibition Beta-Lactam Hydrolysis", "setting": "[14]; inhibitor 16.5 μM", "value": 3.0, "unit": "%"}, {"measurement": "% Inhibition Beta-Lactam Hydrolysis", "setting": "[14]; inhibitor 66 μM", "value": 0, "unit": "%"}, {"measurement": "inhibition at 16.5 µM", "setting": "[15]; Cephaloridine 16.5 μM, inhibitor 16.5 μM", "value": 92.6, "unit": "%"}, {"measurement": "inhibition at 66 µM", "setting": "[15]; Penicillin G 33 μM, inhibitor 66 μM", "value": 100, "unit": "%"}, {"measurement": "% Inhibition Beta-Lactam Hydrolysis", "setting": "[2]; Ampicillin 33 μM, inhibitor 16.5 μM", "value": "40.3% and 78% and 63.3%"}, {"measurement": "% Inhibition Beta-Lactam Hydrolysis", "setting": "[2]; Ampicillin 33 μM, inhibitor 66 μM", "value": "91.4% and 91%"}, {"measurement": "inhibition at 66 µM", "setting": "[2]; [16]", "value": 85, "unit": "%"}, {"measurement": "inhibition at 66 µM", "setting": "[2]; pH 6.5, Preincubation experiment (10 minutes), Ampicillin 33 μM, inhibitor 66 μM", "value": 87.2, "unit": "%"}]}]}
